Assay results reported in patent US10358434B2, “2-(3-pyridinyl)-1H-benzimidazole derivative compound and medicament containing same” (NIHON MEDI-PHYSICS CO., LTD., priority 2014, dated 2019).

How the values were obtained:
[1] = test system: human adrenal gland section expressing aldosterone-producing adenoma; assay: In vitro autoradiography using human adrenal adenoma; assay type: binding
Description: From adrenal gland excised from a human patient for treatment of primary aldosteronism, a portion containing aldosterone-producing adenoma was removed and was then frozen. The frozen adrenal gland was embedded in an embedding agent for production of a frozen tissue section (Tissue-Tek O.C.T. Compound, Sakura Finetek Japan). Using a freezing microtome (CM3050S, Leica Microsystems), a 7-μm thin slice section, which is schematically shown in FIGS. 17(a) and 17(b), was produced, and was preserved at −20° C. before use. In FIGS. 17, 71a and 71b indicate aldosterone-producing adenomas, 72a and 72b indicate normal adrenal cortexes, and 73a and 73b indicate normal adrenal medullas. A 5-33 kBq/mL solution was prepared by adding a suitable amount of each of Compounds [^18F] 100, [^18F] 200, [^123I] 400, [^18F] 500, and [^123I] 601 to [^123I] 610, which were obtained by the methods described in Examples 2, 4, 7, 9, 11, 13, 15, 17, 19, 21, 23, 25, 27, and 29, or [^123I] IMTO to a phosphate-buffered physiological saline containing 1 w/v % bovine serum albumin (not containing fatty acid). The radioactivity concentration was measured using an autowell gamma system (ARC-7001, manufactured by Hitachi Aloka Medical, Ltd.). The section was immersed in the obtained sample solution for 10 minutes. For Compounds [^18F] 100, [^18F] 200, [^123I] 400, [^18F] 500, [^123I] 601 and [^123I] 602, the section shown in FIG. 17(a) was used, and for Compounds […] [^123I] IMTO, both sections shown in FIGS. 17(a) and (b) were used. Each sample solution was washed off, and the section was then exposed to an imaging plate (BAS-SR2040, manufactured by FUJIFILM Holdings Corporation) (IP) for 16-20 hours, and thereafter, an autoradiogram was obtained using a fluoro-image analyzer (FLA-7000, manufactured by FUJIFILM Holdings Corporation).
In order to quantitatively compare differences between images caused by ^123I and ^18F nuclides, a correction was made by calculating accumulation of radioactivity within the range of a region of interest (ROI) by means of integral calculation based on half-life, added radioactivity and IP contact time.
610. FIG. 18(b), FIG. 19(b), FIG. 20(b), FIG. 21(b), FIG. 22(a), FIG. 23(a), FIG. 24(a), FIG. 25(a), FIG. 26(a), FIG. 27(a), FIG. 28(a), FIG. 29(a), FIG. 30(a), and FIG. 31(a) each show an autoradiogram of [^123I] IMTO. […] 100, [^18F] 200, [^123I] 400, [^18F] 500, and [^123I] 601 to [^123I] […] The ROI having the same area as each other was established in a normal site and in a site in which aldosterone-producing adenoma had developed. Then, the PSL value (B1) indicating accumulation of radioactivity in the sites of normal adrenal cortexes 72a and 72b was compared with the PSL value (B2) indicating accumulation of radioactivity in the sites of aldosterone-producing adenomas 71a and 71b. In Table 7, the B1, B2 and B2/B1 values of [^18F] 100 indicate the mean values for the number of tests (n), respectively.

[2] = In vivo kinetics experiment (radioactivity distribution); set-up: species or system Wistar male rat; details: rat i.v., mean ± SD
Description: Each of Compounds [^18F] 100, [^18F] 200, [^123I] 400, [^18F] 500, and [^123I] 601 to 610 obtained by the methods described in Examples 2, 4, 7, 9, 11, 13, 15, 17, 19, 21, 23, 25, 27, and 29, or [^123I] IMTO, was diluted with a physiological saline containing 1 w/v % ascorbic acid to prepare a solution to be administered. The above described compound (approximately 1 to 3.7 MBq) was injected into the caudal vein of a Wistar male rat (9 weeks old) under anesthesia with a mixed gas of isoflurane/air, and ten minutes after the injection, the rat was sacrificed by exsanguination. From the thus sacrificed rat, blood and organs (heart, lung, stomach, liver, spleen, small intestine, large intestine, kidney, bladder (including urine), muscle (lower limbs), brain, adrenal gland, testis, fat, femur, or thyroid gland) were excised, and the weights thereof were then measured. Thereafter, radioactivity was measured in the blood, the individual excised organs, and the remaining whole body. Further, 30 and 60 minutes after the administration, the same operations as those described above were carried out. […] The symbol “n” in Tables 9 to 23 indicates the number of rats used. In addition, Tables 9 to 23 also show the ratio of radioactivity accumulation in adrenal grand (% ID/g) to radioactivity accumulation in each of blood, liver, kidney, small intestine, muscle and fat (% ID/g).

In the case of COC(=O)c1cncn1[C@H](C)c1ccc(I)cc1 [[^123I] IMTO, (R)-[^123I]iodometomidate, reference compound], the “accumulation of radioactivity in adrenal gland section (autoradiogram)” value ([1]; FIGS. 18 to 31) is reported as “accumulation of radioactivity was observed in the entire adrenal gland section”, the B2/B1 accumulation ratio ([1]; section of FIG. 17(a)) is reported as 0.84 and the “B2 (PSL value, aldosterone-producing adenoma)” value ([1]; section of FIG. 17(a), site 71a) is reported as 7863. For the same molecule, the “B1 (PSL value, normal adrenal cortex)” value ([1]; section of FIG. 17(a), site 72a) was 9415, the B2/B1 accumulation ratio ([1]; section of FIG. 17(b)) was 0.79 and the “B2 (PSL value, aldosterone-producing adenoma)” value ([1]; section of FIG. 17(b), site 71b) was 6649. The “B1 (PSL value, normal adrenal cortex)” value ([1]; section of FIG. 17(b), site 72b) was 8453, the “Adrenal gland/blood ratio of radioactivity accumulation” value (“Adrenal gland/blood ratio” for short) ([2]; 10 min after administration) was 15.93 ± 4.94 and the “Adrenal gland/kidney ratio of radioactivity accumulation” value (from here on “Adrenal gland/kidney ratio”) ([2]; 10 min after administration) was 31.76 ± 10.16. For the same molecule, the “Adrenal gland/liver ratio of radioactivity accumulation” value (shortened to “Adrenal gland/liver ratio”) ([2]; 10 min after administration) was 6.72 ± 2.00, the “Adrenal gland/muscle ratio of radioactivity accumulation” value (shortened to “Adrenal gland/muscle ratio”) ([2]; 10 min after administration) was 126.18 ± 54.27 and the “Adrenal gland/small intestine ratio of radioactivity accumulation” value (“Adrenal gland/small intestine ratio” below) ([2]; 10 min after administration) was 35.65 ± 9.43. For the same molecule, the “Radioactivity distribution Adrenal gland” value ([2]; 10 min after administration) was 22.14 ± 6.98 % ID/g, the “Radioactivity distribution Bladder (including urine)” value (shortened to “Radioactivity distribution Bladder”) ([2]; 10 min after administration) was 0.25 ± 0.27 % ID/g and the “Radioactivity distribution Blood” value ([2]; 10 min after administration) was 1.40 ± 0.13 % ID/g. The “Radioactivity distribution Heart” value ([2]; 10 min after administration) was 0.48 ± 0.07 % ID/g, the “Radioactivity distribution Kidney” value ([2]; 10 min after administration) was 0.70 ± 0.01 % ID/g and the “Radioactivity distribution Large intestine” value ([2]; 10 min after administration) was 0.10 ± 0.02 % ID/g. The “Radioactivity distribution Liver” value ([2]; 10 min after administration) was 3.29 ± 0.08 % ID/g, the “Radioactivity distribution Lung” value ([2]; 10 min after administration) was 0.72 ± 0.05 % ID/g and the “Radioactivity distribution Muscle (lower limbs)” value ([2]; 10 min after administration) was 0.18 ± 0.05 % ID/g. For the same molecule, the “Radioactivity distribution Remaining whole body” value ([2]; 10 min after administration) was 0.29 ± 0.00 % ID/g, the “Radioactivity distribution Small intestine” value ([2]; 10 min after administration) was 0.62 ± 0.03 % ID/g and the “Radioactivity distribution Spleen” value ([2]; 10 min after administration) was 0.30 ± 0.02 % ID/g. For the same molecule, the “Radioactivity distribution Stomach” value ([2]; 10 min after administration) was 0.52 ± 0.18 % ID/g, the “Radioactivity distribution Testis” value ([2]; 10 min after administration) was 0.52 ± 0.08 % ID/g and the “Radioactivity distribution Thyroid gland” value ([2]; 10 min after administration) was 1.30 ± 1.05 % ID/g. The “Radioactivity distribution Whole brain” value ([2]; 10 min after administration) was 0.30 ± 0.02 % ID/g, the “Adrenal gland/blood ratio” value ([2]; 30 min after administration) was 6.84 ± 2.49 and the “Adrenal gland/kidney ratio” value ([2]; 30 min after administration) was 16.66 ± 8.95. The “Adrenal gland/liver ratio” value ([2]; 30 min after administration) was 9.74 ± 4.16, the “Adrenal gland/muscle ratio” value ([2]; 30 min after administration) was 97.10 ± 32.37 and the “Adrenal gland/small intestine ratio” value ([2]; 30 min after administration) was 25.49 ± 8.31. The “Radioactivity distribution Adrenal gland” value ([2]; 30 min after administration) was 17.66 ± 7.43 % ID/g, the “Radioactivity distribution Bladder” value ([2]; 30 min after administration) was 0.39 ± 0.08 % ID/g and the “Radioactivity distribution Blood” value ([2]; 30 min after administration) was 2.55 ± 0.16 % ID/g. The “Radioactivity distribution Heart” value ([2]; 30 min after administration) was 0.74 ± 0.03 % ID/g, the “Radioactivity distribution Kidney” value ([2]; 30 min after administration) was 1.10 ± 0.12 % ID/g and the “Radioactivity distribution Large intestine” value ([2]; 30 min after administration) was 0.12 ± 0.01 % ID/g. The “Radioactivity distribution Liver” value ([2]; 30 min after administration) was 1.82 ± 0.04 % ID/g, the “Radioactivity distribution Lung” value ([2]; 30 min after administration) was 0.90 ± 0.09 % ID/g and the “Radioactivity distribution Muscle (lower limbs)” value ([2]; 30 min after administration) was 0.18 ± 0.02 % ID/g. The “Radioactivity distribution Remaining whole body” value ([2]; 30 min after administration) was 0.31 ± 0.03 % ID/g, the “Radioactivity distribution Small intestine” value ([2]; 30 min after administration) was 0.68 ± 0.06 % ID/g and the “Radioactivity distribution Spleen” value ([2]; 30 min after administration) was 0.43 ± 0.04 % ID/g. The “Radioactivity distribution Stomach” value ([2]; 30 min after administration) was 0.46 ± 0.11 % ID/g, the “Radioactivity distribution Testis” value ([2]; 30 min after administration) was 0.32 ± 0.04 % ID/g and the “Radioactivity distribution Thyroid gland” value ([2]; 30 min after administration) was 0.81 ± 0.16 % ID/g. For the same molecule, the “Radioactivity distribution Whole brain” value ([2]; 30 min after administration) was 0.18 ± 0.02 % ID/g, the “Adrenal gland/blood ratio” value ([2]; 60 min after administration) was 6.73 ± 2.57 and the “Adrenal gland/kidney ratio” value ([2]; 60 min after administration) was 18.20 ± 8.58. For the same molecule, the “Adrenal gland/liver ratio” value ([2]; 60 min after administration) was 14.20 ± 5.28, the “Adrenal gland/muscle ratio” value ([2]; 60 min after administration) was 120.14 ± 30.92 and the “Adrenal gland/small intestine ratio” value ([2]; 60 min after administration) was 24.59 ± 8.26. For the same molecule, the “Radioactivity distribution Adrenal gland” value ([2]; 60 min after administration) was 19.70 ± 8.14 % ID/g, the “Radioactivity distribution Bladder” value ([2]; 60 min after administration) was 0.68 ± 0.30 % ID/g and the “Radioactivity distribution Blood” value ([2]; 60 min after administration) was 2.91 ± 0.09 % ID/g. For the same molecule, the “Radioactivity distribution Heart” value ([2]; 60 min after administration) was 0.77 ± 0.03 % ID/g, the “Radioactivity distribution Kidney” value ([2]; 60 min after administration) was 1.10 ± 0.10 % ID/g and the “Radioactivity distribution Large intestine” value ([2]; 60 min after administration) was 0.14 ± 0.02 % ID/g. The “Radioactivity distribution Liver” value ([2]; 60 min after administration) was 1.37 ± 0.06 % ID/g, the “Radioactivity distribution Lung” value ([2]; 60 min after administration) was 1.01 ± 0.03 % ID/g and the “Radioactivity distribution Muscle (lower limbs)” value ([2]; 60 min after administration) was 0.16 ± 0.02 % ID/g. For the same molecule, the “Radioactivity distribution Remaining whole body” value ([2]; 60 min after administration) was 0.34 ± 0.01 % ID/g, the “Radioactivity distribution Small intestine” value ([2]; 60 min after administration) was 0.79 ± 0.11 % ID/g and the “Radioactivity distribution Spleen” value ([2]; 60 min after administration) was 0.39 ± 0.03 % ID/g. The “Radioactivity distribution Stomach” value ([2]; 60 min after administration) was 0.41 ± 0.05 % ID/g, the “Radioactivity distribution Testis” value ([2]; 60 min after administration) was 0.33 ± 0.02 % ID/g and the “Radioactivity distribution Thyroid gland” value ([2]; 60 min after administration) was 1.29 ± 0.25 % ID/g. For the same molecule, the “Radioactivity distribution Whole brain” value ([2]; 60 min after administration) was 0.11 ± 0.00 % ID/g.
